The text below walks through data of PubChem BioAssay AID493130 (Broad Institute, 2011).

Inconclusive results are not listed. Active and inactive are the calls of the source.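 How the source made its calls: active means signal-lowering compounds whose fitted half-maximal concentration is at most ten times their highest tested dose; inconclusive means flat fit between -30 and -70%, or poor fit; inactive means flat within 30%, signal rising, or potency beyond limit.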

By AC50 is commonly meant the concentration giving half of the maximal activity seen.

In the first experiment the target is POS-1 (Caenorhabditis elegans) binding to mex-3 RNA. As to the kind of experiment: inhibitors of POS-1/mex-3 RNA binding, dose response, counter-screen for MEX-5 RNA-binding inhibitor project, biochemical, fluorescence polarization, cherry-picked samples, set 2 (AID 493130).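 Further: POS-1 as maltose binding protein fusion made in E. coli with FITC RNA.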 The following applies: POS-1/mex-3 RNA fluorescence polarization, 1 h. Background: A counterscreen serves to expose hits that act by an unwanted route or on another target.
Take `Cc1cc(C(=O)NNC(=O)CCCCC(=O)NNC(=O)c2cc(C)[nH]n2)n[nH]1`: the AC50 is > 10 µM (inactive). For the compound `Cn1c(=O)c(Nc2ccc(Cl)cc2)c2c3c(cccc31)C(=O)c1ccccc1-2`, the AC50 is 0.907 µM. Still for that read-out and setting: under `O=C(O)c1ccccc1NS(=O)(=O)c1cccc(-n2sc3ccccc3c2=O)c1` stands 8.72 µM; under `CCOC(=O)C1=C(CSc2nc3c(cc2C#N)CN(C)CC3)OC(N)=C(C#N)C1c1ccncc1` (configuration not stated), 7.33 µM; under `CC1CCN(Cc2c(O)ccc3c2O/C(=C\c2ccco2)C3=O)CC1`, 3.53 µM. The same measure, in the same setting: for `O=C(O)C1Nc2c(Cl)cc(Cl)cc2C2C=CCC12` (configuration not stated) the value was 5.13 µM; for `CCOc1cc(/C=C2\CCCc3c2nc2ccccc2c3C(=O)O)ccc1OC`, 0.948 µM; for `CCNC(=S)N/N=C/c1sc(N2CCCCC2)nc1-c1cccs1`, 4.68 µM. Turning to `CCC(=O)Oc1ccc2c(c1)O/C(=C\c1ccco1)C2=O`, the AC50 is 5.63 µM.

With `Cc1cccc(N=Nc2c(O)[nH]c3ccc(F)cc23)c1`, the AC50 was 1.87 µM. Regarding `Cc1oc2c(cc(NS(=O)(=O)c3ccc(C(C)C)cc3)c3ccccc32)c1C(=O)O`, the AC50 was 10.4 µM. Regarding `COc1ccc(N=Nc2nc3ccc(Br)cc3n2C)cc1`, the AC50 is 2.16 µM. As for `Cc1occc1C(=O)N/N=C/C1=C(N2CCOCC2)C(=C\c2ccc(Cl)cc2Cl)/CC1`, the AC50 was 8.21 µM.

On to `CNC(=O)/C(C#N)=C/c1ccc(-c2nc3ccccc3s2)o1`, for which the AC50 was 3.91 µM. For `Cc1ccc(-c2cc(C(=O)Nc3ccc(S(=O)(=O)Nc4ncccn4)cc3)[nH]n2)c(O)c1C`, the AC50 was 5.29 µM. Turning to `CN1CC=C2C(C#N)=C(N)C(C#N)(C#N)[C@H](c3ccoc3)[C@H]2C1`, the AC50 was 5.4 µM.

As for `CC1C(=O)NN=C1C(=O)N/N=C\c1ccc(O)cc1O` (configuration not stated), the AC50 was 9.42 µM. On the same count and under the same terms, under `Cc1[nH][nH]c(=O)c1C(c1ccc(O)c([N+](=O)[O-])c1)c1c(C)[nH][nH]c1=O` stands 7.84 µM.

Staying with this experiment, now noted: POS-1/mex-3 RNA fluorescence polarization, 1 h; at 10 µM (top of the series).
On to `Cc1ccc(N/N=C(\C#N)C(=O)c2ccsc2)cc1`, for which the “activity change, negative = inhibition” value was “inactive”.

Regarding `CCOc1ccccc1N=NC1C(=O)N(C(N)=S)N=C1C` (configuration not stated), the “activity change, negative = inhibition” value was “inactive”. As for `CCOC(=O)N1CCN(c2nc3ccccc3nc2C(C#N)C(=O)NCCc2ccccc2)CC1` (configuration not stated), the “activity change, negative = inhibition” value was “inactive”. Consider `CCc1ccc(N2C(=O)NC(=O)/C(=C\c3cccn3CCOc3ccc(C(C)C)cc3)C2=O)cc1`, for which the “activity change, negative = inhibition” value was “inactive”.

Regarding `CCOC(=O)C1(C)/C(=N/Nc2cccc(Cl)c2)C(=O)C(=O)N1c1ccccc1` (configuration not stated), the “activity change, negative = inhibition” value was “inactive”. Still for that read-out and setting: for `Cc1ccc(-c2ccc(/C=N/N=C3/NC(=O)C(CC(=O)O)S3)o2)c([N+](=O)[O-])c1` (configuration not stated) the value was “inactive”; for `COc1cccc(NCc2cc(=O)oc3cc(C)c(C(C)C)cc23)c1`, “inactive”; for `O=C1CS/C(=N\NC(=O)c2ccccc2)N1`, “inactive”. The same measure, in the same setting: under `CCOC(=O)[C@]1(C#N)[C@@H]2C=CC(C(N)=O)=CN2[C@@H](C(N)=O)[C@@H]1c1ccc(F)cc1` stands “inactive”; under `COc1cccc(CNC23CC4CC(CC(C4)C2)C3)c1OCc1ccccc1`, “inactive”. Regarding `CS(=O)(=O)c1ccccc1C(=O)Nc1cccc2ncccc12`, the “activity change, negative = inhibition” value was “inactive”. Regarding `CCN(CC(=O)Nc1ccc(NC(C)=O)cc1)Cc1c(O)ccc2cc(Br)ccc12`, the “activity change, negative = inhibition” value was “inactive”. In the case of `CCOC(=O)c1c(-c2ccccc2)oc2ccc(OCC(=O)NNC(=O)CCC(=O)O)cc12`, the “activity change, negative = inhibition” value is “inactive”.

For the compound `CCN(CC)c1ccc(N=Cc2c(O)n(-c3ccccc3C)c(=O)[nH]c2=O)cc1`, the “activity change, negative = inhibition” value is “inactive”. With `O=C(N/N=C/c1oc(O)c2ccccc12)c1ccccc1O`, the “activity change, negative = inhibition” value is “inactive”. On the same count and under the same terms, for `CN(N=Nc1ccc([N+](=O)[O-])cc1)c1ccccc1` the value was “inactive”.

In the case of `CCOc1c(O)ccc(/C=C2\SC(=S)NC2=O)c1[N+](=O)[O-]`, the “activity change, negative = inhibition” value is “inactive”. For the compound `CC/C(=N/Nc1cccc(C)c1)c1cnnc(SC)n1`, the “activity change, negative = inhibition” value was “inactive”.

For `Cn1c(CNC(=O)c2ccc(F)cc2)cc2ccccc21`, the “activity change, negative = inhibition” value is “inactive”. The same measure, in the same setting: under `COc1ccc(N=Nc2c(C)[nH][nH]c2=O)cc1` stands “inactive”; under `Cc1nc2c3ccccc3nc(NNC(=O)CCC(=O)NC(C)C)n2n1`, “inactive”; under `CCOC(=O)CNc1nc2ccccc2n2c(C)nnc12`, “inactive”. As to `CCN(CC)c1ccc(C(=O)N/N=C(\C)c2cccnc2)cc1`, the “activity change, negative = inhibition” value was “inactive”. Consider `CCc1ccc(S(=O)(=O)Nc2ccc(O)c3c(=O)cc(-c4ccccc4Cl)oc23)cc1`, for which the “activity change, negative = inhibition” value is “inactive”. Consider `CCOc1cc(/C=N/NC(=O)N/N=C/c2ccc(O)c(OCC)c2)ccc1O`, for which the “activity change, negative = inhibition” value is “inactive”. Turning to `COC(=O)c1ccccc1N=Nc1c(N)n[nH]c1N`, the “activity change, negative = inhibition” value is “inactive”. `COc1ccc(OC)c(/C=N/NC(=O)c2ccc(=O)[nH]n2)c1`: the “activity change, negative = inhibition” value was “inactive”. `Cc1cc(C(=O)N/N=C/c2ccc(-c3ccc([N+](=O)[O-])cc3Cl)o2)n[nH]1`: the “activity change, negative = inhibition” value was “inactive”.

For the compound `COc1ccc(N=C2S/C(=C\c3ccc(N4CCOCC4)o3)C(=O)N2CCc2c[nH]c3ccccc23)cc1`, the “activity change, negative = inhibition” value is “inactive”.

For `FC(F)(F)c1nc2cc3nc4ccccc4[nH]c3cc2n1`, the “activity change, negative = inhibition” value was “inactive”. Same read-out and setting: under `COc1cc(/C=C2/C(=O)NN(c3ccc(Cl)c(Cl)c3)C2=O)cc([N+](=O)[O-])c1O` stands “inactive”; under `COC(=O)c1cc2c(-c3ccccc3)cc3ccccn3c-2c1C(=O)OC`, “inactive”. On to `COc1ccc(OC)c(Nc2nc(-c3ccc(O)c(O)c3)cs2)c1`, for which the “activity change, negative = inhibition” value is “inactive”.

Consider `Oc1ccc(Br)cc1C=Nc1cccn2cc(-c3ccccc3)nc12`, for which the “activity change, negative = inhibition” value was “inactive”.

On to `CC1=C(C(=O)OCc2ccccc2)C(c2cccc([N+](=O)[O-])c2)NC(=O)N1C` (configuration not stated), for which the “activity change, negative = inhibition” value was “inactive”. For the compound `Cc1ccccc1S(=O)(=O)NNC(=O)C(=O)NNc1ccccn1`, the “activity change, negative = inhibition” value was “inactive”.

As to `CC(C)=CCc1c(O)cc(O)c2c(=O)c(O[C@@H]3O[C@@H](C)[C@H](O)[C@@H](O)[C@H]3O)c(-c3ccc(O)cc3)oc12`, the “activity change, negative = inhibition” value was “inactive”. On the same count and under the same terms, for `CN(C)c1ccc(C(c2nnnn2CCOC(=O)Nc2ccc(Cl)cc2)N2CCOCC2)cc1` (configuration not stated) the value was “inactive”; for `CCOC(=O)C1C(=O)C=C(/C=C/c2ccc(N(C)C)cc2)CC1c1ccccc1` (configuration not stated), “inactive”; for `CC1(N2CCOCC2)CC2(O)C(=[N+]1[O-])CCc1c2no[n+]1[O-]` (configuration not stated), “inactive”. As for `O=Cc1ccc2ccc3cccnc3c2n1`, the “activity change, negative = inhibition” value was “inactive”. Regarding `O=C(NNC(=O)c1ccco1)c1csc(N2CCOCC2)n1`, the “activity change, negative = inhibition” value was “inactive”.

For the compound `Cc1cc(C)cc(NC(=O)N(C)Cc2ccccc2)c1`, the “activity change, negative = inhibition” value was “inactive”. For the compound `O=C1SC(SCc2ccccc2Cl)=N/C1=C\c1ccc(C(=O)O)cc1`, the “activity change, negative = inhibition” value was “inactive”. Take `COc1cccc(C2C=C(c3cccs3)Nc3ncnn32)c1OC` (configuration not stated): the “activity change, negative = inhibition” value is “inactive”. `NC(=S)N=Nc1c(O)[nH]c2cc(F)c(F)cc12`: the “activity change, negative = inhibition” value was “inactive”. For the compound `O=C(O)/C=C/C(=O)NNc1ncnc2ccccc12`, the “activity change, negative = inhibition” value is “inactive”. Regarding `Cc1csc(NC(=O)c2ccc(-c3ccc(Cl)cc3Cl)o2)n1`, the “activity change, negative = inhibition” value was “inactive”. On the same count and under the same terms, under `CC1=Nc2ccc(C)cc2/C1=C/c1c(N)n2c(S(=O)(=O)C(C)C)nsc2nc1=O` stands “inactive”; under `COc1cc2c(cc1O)C[C@H]1NCCc3cc4c(c-2c31)OCO4`, “inactive”. Same read-out and setting: under `COc1ccc(NC(=O)c2sc3nc(Cc4ccccc4)cc(C(F)(F)F)c3c2N)cc1OC` stands “inactive”.

As for `CCCCn1c(O)c(N=Nc2ccccn2)c2ccccc21`, the “activity change, negative = inhibition” value was “inactive”. Consider `CN(CC(=O)Nc1cccc(F)c1)C(=O)/C=C/c1cn(Cc2ccccc2)nc1-c1cccnc1`, for which the “activity change, negative = inhibition” value was “inactive”. `O=S(=O)(Nc1ccc(O)c(NS(=O)(=O)c2ccccc2)c1)c1ccccc1`: the “activity change, negative = inhibition” value is “inactive”.

With `O=C(/C=C/Nc1ccc(S(=O)(=O)Nc2cnc3ccccc3n2)cc1)c1ccccc1`, the “activity change, negative = inhibition” value is “inactive”. On the same count and under the same terms, for `Cc1ccc(Nc2nc(-c3ccc(C)cc3)c(CC(=O)O)s2)cc1` the value was “inactive”; for `CN1C(=O)/C(=C/c2cn(CC(=O)N3CCCCC3)c3ccccc23)c2ccccc21`, “inactive”. Regarding `C=CCOc1ccc(C(c2c(C(=O)O)[nH]c3ccccc23)c2c(C(=O)O)[nH]c3ccccc23)cc1`, the “activity change, negative = inhibition” value is “inactive”. For the compound `COCC(C)N1CCC(n2nccc2NC(=O)CCCc2ccccc2)CC1` (configuration not stated), the “activity change, negative = inhibition” value was “inactive”. As to `Cn1ccc(=Nc2ccc(NC(=O)c3ccc(N=c4ccn(C)c5ccc([N+](=O)[O-])cc45)cc3)cc2)cc1`, the “activity change, negative = inhibition” value was “inactive”. Same read-out and setting: under `Cc1cccc(/C=C(\C#N)C(=O)Nc2ccccn2)c1` stands “inactive”; under `CC[N+](C)(CC)CCCOC(=O)C(O)(c1ccccc1)C1CCCCC1` (configuration not stated), “inactive”. As for `Nc1cc(C(=O)O)c(Oc2ccc(Cl)cc2Cl)cc1C(=O)O`, the “activity change, negative = inhibition” value was “inactive”. Turning to `O=c1[nH]nc(CNc2ccc(OC(F)(F)F)cc2)c2ccccc12`, the “activity change, negative = inhibition” value was “inactive”.
